Data taken from US5501850A, “Use of benzimidazole derivatives as light protection filters” (Merck Patent Gesellschaft mit beschrankter Haftung, priority 1992, dated 1996).
In brackets after ≈: the same amount, converted by molar mass. Read-outs that look alike come from different tables or passages of the source.

Tests used:
[1] = 280-320 nm; cited from earlier work
[2] = cited from earlier work
[3] = UV spectra measured in a UV spectrometer (Perkin-Elmer), path length one centimeter; type: physicochemical; conditions: ethanol, c=1 mg/100 ml
Method: The UV spectra were measured in a UV spectrometer from Perkin-Elmer at a path length of one centimeter.

Solubility = type: physicochemical; conditions: organic solvent or mixture

Structure (SMILES) | E at λmax1 [3] | E at λmax2 [3] | λmax1 [3] [nm] | λmax2 [3] [nm] | further results
O=S(=O)(O)c1ccc2[nH]c(-c3ccccc3)nc2c1 [EUSOLEX® 232] | – | – | – | – | filter quality in the UVB range [1]: good filters
Cc1ccc(C=C2C(=O)C3(C)CCC2C3(C)C)cc1 (stereo not shown) [EUSOLEX® 6300] | – | – | – | – | filter quality in the UVB range [1]: good filters
CC(C)c1ccc(C(=O)CC(=O)c2ccccc2)cc1 [EUSOLEX® 8020] | – | – | – | – | stability when exposed to UV irradiation [2]: do not have an unlimited stability
CCCCC(CC)COc1ccc(OCC(CC)CCCC)c(-c2nc3ccccc3[nH]2)c1 (stereo not shown) [Example 1, 2-2',5'-Di(2-ethylhexyloxy)phenyl!benzimidazole] | 0.34 | 0.30 | 303 | 328 | –
CCCCC(CC)COc1c(OC)ccc(-c2nc3ccccc3[nH]2)c1OC (stereo not shown) [Example 2] | 0.51 | 0.45 | 297 | 308 | solubility (Solubility; isopropanol, read-out: Solubility in Isopropanol): 640 mg/mL (≈ 1670 mM); solubility (Solubility; miglyol, read-out: Solubility in Miglyol): 590 mg/mL (≈ 1540 mM); solubility (Solubility; paraffin, read-out: Solubility in Paraffin): 57 mg/mL (≈ 149 mM)
COc1ccc(-c2nc3ccccc3[nH]2)c(OC)c1OC [Example 2a, 2-(2',3',4'-Trimethoxy)phenylbenzimidazole] | 0.76 | 0.42 | 309 | 323 | –
COc1ccc(C(=O)CC(=O)c2ccc(C(C)(C)C)cc2)cc1 [PARSOL® 1789] | – | – | – | – | stability when exposed to UV irradiation [2]: do not have an unlimited stability
